Laboratory results taken from patent US20230241024A1, “METHODS OF TREATING METABOLIC DISORDERS” (Sunovion Pharmaceuticals Inc., priority 2021, published 2023).

Columns and labels:
[1] = system: female Sprague Dawley rats fed on a high-fat powdered diet; assay: Body weight, food intake, body composition and liver triglycerides, once daily dosing up to 15 days, high-fat diet rats (Example 2.1); format: in vivo, rat; conditions: Olanzapine 3 mg/kg po
Experimental: Body weight and food and water intake were assessed daily.
Animals: Seventy-four (2 spares) female Sprague Dawley rats (weight range 200-300 g) were ordered from Charles River, Margate, Kent. Rats were singly housed in cages with sawdust bedding and enrichment at an ambient temperature of 21 ± 2° C. Upon arrival (Thursday), rats were weighed and given wet mash to aid recovery from transport. Rats were weighed the following day and on the Monday of the following week. Animals were maintained on a reverse-phase light-dark cycle (lights off for 8 hours from 10:00-18 :00 h) during which time the room was illuminated by red light. Rats were weighed on the Friday and Monday of the following week. […] Except for 12 animals (Group F), all animals had free access to a high-fat powdered diet (VRF1 plus 20% lard). […] All rats had access to filtered water at all times. The diets were contained in glass feeding jars with aluminum lids (Solmedia Laboratory Suppliers. Romford. Essex). […] Animals were accustomed to these conditions for at least two weeks before experimentation.
Experimental Procedure: Animals underwent a 3-day baseline run-in period during which time all rats were dosed once a day with vehicle. Dosing was timed to start at approximately 08:45 so that the mid-point was approximately the time of lights out. Animals, food and water were weighed at the time of dosing. Towards the end of the baseline period, animals were weighed (to the nearest 0.1 g using an electronic top-pan balance) and allocated by a statistician. The spare animals were humanely withdrawn from the study.
Dosing (in a randomized order) began at approximately 08:45 h each day (0 h), i.e., the mid-point of dosing is approximately at the time of lights out. Body weight, food and water intake was recorded daily at the time of dosing. All rats were observed before and after dosing and comments on condition were noted as appropriate. On the afternoon of Day 14 (approx. 16:00) animals were fasted to a timed schedule. The experiment ended the following morning on Day 15. On the morning of Day 15, final readings were undertaken 16 hour post-fast (i.e., body weight measurements). Animals were then dosed (as described). Four hours later, a blood sample (1 mL) was taken from the lateral tail vein into tubes containing lithium heparin. […] Animals were then terminated by a Schedule 1 method (exposure to an increasing concentration of C02 with death confirmed by cervical dislocation). A terminal blood sample (circa 4 mL) was taken into an EDTA-coated tube and a single plasma aliquot (approximately 1 mL) was stored frozen (approx. -80° C.) in a clean aliquot tube. The liver was dissected and the caudate lobe removed. Both the caudate lobe and the remaining liver were weighed and stored frozen separately (on dry ice and then transferred to a freezer at approx. -80° C.). The caudate lobe underwent option further analysis of liver triglycerides.

[2] = system: female Sprague Dawley rats previously treated with olanzapine; assay: Body weight, food intake, body composition and liver triglycerides of rats previously treated with olanzapine and switched (Example 2.2); format: in vivo, rat
Experimental: Rats were singly housed in cages with sawdust bedding and enrichment at an ambient temperature of 21±2° C. Upon arrival (Thursday), rats were weighed and given wet mash to aid recovery from transport. Rats were weighed the following day and the Monday of the following week. Animals were maintained on a reverse-phase light-dark cycle (lights off for 8 h from 10:00-18:00 h) during which time the room was illuminated by red light. Rats were weighed on the Friday and Monday of the following week. […] All animals had free access to a high-fat powdered diet (VRF1 plus 20% lard) and all rats had access to filtered water at all times. The diets were contained in glass feeding jars with aluminum lids (Solmedia Laboratory Suppliers, Romford, Essex). […] Animals were accustomed to these conditions for at least two weeks before experimentation.
Dosing was timed to start at approximately 08:45 so that the mid-point was approximately the time of lights out. Animals, food and water were weighed at the time of dosing. Towards the end of this baseline period, animals were weighed (to the nearest 0.1 g using an electronic top-pan balance) and allocated into 2 weight-matched treatment groups by a Statistician.
Dosing began at approximately 08:45 h each day (0 h), i.e., so the mid-point of dosing was approximately at the time of lights out. This strategy was taken to maximize the impact of the drugs on food intake. Dosing continued for 7 consecutive days and rats were weighed (to the nearest 0.1 g) every day at 0 h. Prior to and at the completion of each dosing session animals were examined and any overt behavioral/physiological effects or other relevant observations regarding the condition of the animals was recorded manually. […] and food intake were assessed daily.
Dosing began at approximately 08:45 h each day (0h), i.e., the mid-point of dosing was approximately at the time of lights out. Body weight, food and water intake was recorded daily at the time of dosing. All rats were observed before and after dosing and comments on condition were noted as appropriate. On the afternoon of Day 14 (approx. 16:00) animals were fasted to a timed schedule. The experiment ended the following morning on Day 15. On the morning of Day 15, final readings were undertaken 16 h post-fast (i.e., body weight measurements). Animals were then dosed (as described). Four hours later, two blood samples (20 µL and 1 mL) were taken from the lateral tail vein into tubes containing lithium heparin. The 20 µL sample was stored frozen (whole blood) prior to determination of HbAlc (Roche Tina-quant A2c Gen 3, Cobas C111). […] Animals were then terminated by a Schedule 1 method (exposure to an increasing concentration of CO2 with death confirmed by cervical dislocation). A terminal blood sample (circa 4 mL) was taken into EDTA-coated tube and a single plasma aliquot (approximately 1 mL) was stored frozen (approx. -80° C.) in a clean aliquot tube. The liver was dissected and the caudate lobe removed. Both the caudate lobe and the remaining liver was weighed and stored frozen separately (on dry ice and then transferred to a freezer at approx. -80° C.). The caudate lobe underwent further analysis of liver triglycerides. Carcasses were stored frozen (approx. -20° C.) for potential body composition analysis. Metabolic parameters including fasting glucose and insulin levels, liver triglycerides and body fat composition were determined at the end of the study.

[3] = Food effect on the pharmacokinetics of 50 mg tablet (Example 10); conditions: 50 mg Compound 1 tablet
Source text: Methods: The study used an open-label randomized 2-period crossover design in 20 healthy volunteers. Subjects were fasted overnight then randomly assigned to 1 of 2 dosing sequences, A ➔ B or B ➔ A, where A was the fasted condition and B was the fed condition. […] The fed and fasted dosing periods were separated by one week. Serial plasma samples from each period were collected for PK analysis.
Solid phase extraction was used for sample cleanup. Stable isotope-labeled internal standards were used for corresponding analytes. Noncompartment PK parameters were calculated using Phoenix WinNonlin® software.

[4] = Week 1 (Day 1-8), Olanzapine 3 mg/kg po
[5] = Week 2 (Day 8-13), after olanzapine Day 1-7, 3 mg/kg po
[6] = Week 2 (Day 8-14), continued Olanzapine 3 mg/kg po
[7] = from Day 8, after olanzapine Day 1-7, 3 mg/kg po

In the case of `Cc1cc2c(s1)Nc1ccccc1N=C2N1CCN(C)CC1` [Olanzapine, olanzapine], the “Fat in carcass % change vs vehicle” value [1] is reported as 8.8%, the “Fat in carcass Difference vs vehicle” value [1] is reported as 1.4% and the “Fat in carcass, Mean” value [1] is reported as 16.9%. For the same compound, the “Fat per rat % change vs vehicle” value [1] was 12.4%, the “Fat per rat Difference vs vehicle” value [1] was 5.2 g and the “Fat per rat, Mean” value [1] was 47.0 g. The “Liver Total triglycerides Mean” value [1] was 227.46 µmol, the “Liver Total triglycerides vs vehicle” value [1] was 85.6 and the “Liver triglycerides % vs vehicle” value [1] was 77.1%. The “Liver triglycerides, Mean” value [1] was 25.07 µmol/g, the “Protein in carcass % change vs vehicle” value [1] was -1.8% and the “Protein in carcass Difference vs vehicle” value [1] was -0.38%. The “Protein in carcass, Mean” value [1] was 20.46%, the “Protein per rat % change vs vehicle” value [1] was 3.5% and the “Protein per rat Difference vs vehicle” value [1] was 1.9 g. The “Protein per rat, Mean” value [1] was 56.9 g, the “Water in carcass % change vs vehicle” value [1] was -1.4% and the “Water in carcass Difference vs vehicle” value [1] was -0.8%. For the same compound, the “Water in carcass, Mean” value [1] was 59.9%, the “Water per rat % change vs vehicle” value [1] was 3.6% and the “Water per rat Difference vs vehicle” value [1] was 5.8 g. For the same compound, the “Water per rat, Mean” value [1] was 166.5 g, the “Daily food intake % change” value ([1]; Overall (Day 1-13)) was 13.6% and the “Daily food intake Difference” value ([1]; Overall (Day 1-13)) was 2.0 g/day. The “Daily food intake Mean” value ([1]; Overall (Day 1-13)) was 16.4 g/day, the “Changes in body weights Difference vs vehicle” value ([1]; Overall (Day 1-14)) was 21.5 g and the “Changes in body weights Mean” value ([1]; Overall (Day 1-14)) was 33.2 g. For the same compound, the “increase in body weight, previously shown in-house in this model” value ([2]; Olanzapine 3 mg/kg po) was 4-6%, the “Averages of daily food intakes, Difference vs Vehicle (A)” value ([2]; Week 1 (Day 1-7), 3 mg/kg po) was 1.90 g/day and the “Averages of daily food intakes, Mean” value ([2]; Week 1 (Day 1-7), 3 mg/kg po) was 17.21 g/day. The “Changes in body weights Difference vs Vehicle (A)” value [2, 4] was 13.07 g, the “Changes in body weights Mean” value [2, 4] was 25.48 g and the “Averages of daily food intakes, Difference vs Vehicle (A)” value [2, 5] was 1.60 g/day. For the same compound, the “Averages of daily food intakes, Mean” value [2, 5] was 16.73 g/day, the “Changes in body weights Difference vs Vehicle (A)” value [2, 6] was 7.55 g and the “Changes in body weights Mean” value [2, 6] was 16.70 g. The “Fat in carcass, % change vs Vehicle (A)” value [2, 7] was 18.3%, the “Fat in carcass, Difference vs Vehicle (A)” value [2, 7] was 2.4% and the “Fat in carcass, Mean” value [2, 7] was 15.8%. For the same compound, the “Fat per rat, % change vs Vehicle (A)” value [2, 7] was 22.7%, the “Fat per rat, Difference vs Vehicle (A)” value [2, 7] was 8.0 g and the “Fat per rat, Mean” value [2, 7] was 43.3 g. For the same compound, the “Final carcass weight, % change vs Vehicle (A)” value [2, 7] was 4.1%, the “Final carcass weight, Mean” value [2, 7] was 271.9 g and the “Liver triglycerides (µmol total), % vs Vehicle (A)” value [2, 7] was 100.4%. The “Liver triglycerides (µmol/g), % vs Vehicle (A)” value [2, 7] was 100.0%, the “Liver triglycerides, Mean” value [2, 7] was 348 µmol total and the “Protein in carcass, % change vs Vehicle (A)” value [2, 7] was -2.4%. For the same compound, the “Protein in carcass, Difference vs Vehicle (A)” value [2, 7] was -0.49%, the “Protein in carcass, Mean” value [2, 7] was 20.24% and the “Protein per rat, % change vs Vehicle (A)” value [2, 7] was 1.6%. For the same compound, the “Protein per rat, Difference vs Vehicle (A)” value [2, 7] was 0.9 g, the “Protein per rat, Mean” value [2, 7] was 55.0 g and the “Water in carcass, % change vs Vehicle (A)” value [2, 7] was -3.6%. For the same compound, the “Water in carcass, Difference vs Vehicle (A)” value [2, 7] was -2.2%, the “Water in carcass, Mean” value [2, 7] was 60.4% and the “Water per rat, % change vs Vehicle (A)” value [2, 7] was 0.3%. The “Water per rat, Difference vs Vehicle (A)” value [2, 7] was 0.6 g and the “Water per rat, Mean” value [2, 7] was 163.9 g.

For `NC[C@@H]1OCCc2ccsc21` [metabolite], the “geometric mean ratio for AUC0-∞ (fed/fasted)” value [3] was 98.29%, the “geometric mean ratio of Cmax (fed/fasted)” value [3] was 94.77% and the “ratio of N-desmethyl active metabolite to parent Compound 1, fed versus fasted” value [3] was “no change”.
